Read-outs that look alike come from different tables or passages of the source.
Columns and labels:
human RET kinase = biological target: T1, human RET kinase (Homo sapiens, UniProt P07949); assay: RET Kinase Assay (LanthaScreen TR-FRET enzymatic assay); assay type: biochemical; details: 7 nM RET, 23 μM ATP
T1 construct: purchased Carna 08-159
Procedure, shortened: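 TR-FRET enzymatic read-out using 23 μM ATP, 3 μM FAM-P2 substrate and 7 nM human RET, after 15-min compound pretreatment at room temperature and a 1 h reaction at 28° C in HEPES pH 7.5 buffer. Percent of DMSO control fitted to nonlinear sigmoid curves for IC50.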

human KDR kinase = biological target: T2, human KDR kinase (Homo sapiens, UniProt P35968); assay: KDR Kinase Assay (LanthaScreen TR-FRET enzymatic assay); assay type: biochemical; details: 1.2 nM KDR, 92 μM ATP
T2 construct: purchased Carna 08-191
Procedure, shortened: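 TR-FRET enzymatic format: after 15-min room-temperature compound pretreatment, 1.2 nM human KDR phosphorylated 3 μM FAM-P22 with 92 μM ATP (HEPES pH 7.5, 28° C., one hour). Reactions were quenched with EDTA buffer. IC50 came from nonlinear sigmoid fits of percent-of-vehicle signal ratios.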

TT cells = assay: TT Cell Proliferation Assay (WST-8, 8 days); assay type: cell-based; details: Homo sapiens, 192 h, growth inhibition in TT cells, read-out: TT Cellular Activity
Procedure, shortened: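 IC50 was derived from absorbance at 450 nm after 5 h with WST-8, following 8 days' incubation at 37 °C. Final compound levels spanned 0.0005–5 μM in 0.5% DMSO. TT cells were seeded at 6,000 per well in 10% FBS RPMI-1640 and left to attach for 24 h beforehand.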

BAF3-KIF5B-RET cells = biological target: T3, BAF3-KIF5B-RET cells (Homo sapiens, UniProt P07949); assay: BAF3-KIF5B-RET Cell proliferation assay (CellTiter-Glo, 72 hours); assay type: cell-based; details: growth inhibition, read-out: BA/F3-KIF5B-RET Cellular activity
T3 construct: fused on or other part: P33176 (Kinesin-1 heavy chain)
Procedure, shortened: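 Cells seeded at 2,000/well in RPMI-1640 with 10% FBS and left 24 h at 37 °C, then exposed 72 h to nine compound levels (final 1 μM down to 0.00015 μM, 0.1% DMSO). CellTiter-Glo luminescence gave viability versus DMSO wells, from which IC50 was fitted.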

T3 sequence (P07949 whole entry, change not shown, the tested form may be a part): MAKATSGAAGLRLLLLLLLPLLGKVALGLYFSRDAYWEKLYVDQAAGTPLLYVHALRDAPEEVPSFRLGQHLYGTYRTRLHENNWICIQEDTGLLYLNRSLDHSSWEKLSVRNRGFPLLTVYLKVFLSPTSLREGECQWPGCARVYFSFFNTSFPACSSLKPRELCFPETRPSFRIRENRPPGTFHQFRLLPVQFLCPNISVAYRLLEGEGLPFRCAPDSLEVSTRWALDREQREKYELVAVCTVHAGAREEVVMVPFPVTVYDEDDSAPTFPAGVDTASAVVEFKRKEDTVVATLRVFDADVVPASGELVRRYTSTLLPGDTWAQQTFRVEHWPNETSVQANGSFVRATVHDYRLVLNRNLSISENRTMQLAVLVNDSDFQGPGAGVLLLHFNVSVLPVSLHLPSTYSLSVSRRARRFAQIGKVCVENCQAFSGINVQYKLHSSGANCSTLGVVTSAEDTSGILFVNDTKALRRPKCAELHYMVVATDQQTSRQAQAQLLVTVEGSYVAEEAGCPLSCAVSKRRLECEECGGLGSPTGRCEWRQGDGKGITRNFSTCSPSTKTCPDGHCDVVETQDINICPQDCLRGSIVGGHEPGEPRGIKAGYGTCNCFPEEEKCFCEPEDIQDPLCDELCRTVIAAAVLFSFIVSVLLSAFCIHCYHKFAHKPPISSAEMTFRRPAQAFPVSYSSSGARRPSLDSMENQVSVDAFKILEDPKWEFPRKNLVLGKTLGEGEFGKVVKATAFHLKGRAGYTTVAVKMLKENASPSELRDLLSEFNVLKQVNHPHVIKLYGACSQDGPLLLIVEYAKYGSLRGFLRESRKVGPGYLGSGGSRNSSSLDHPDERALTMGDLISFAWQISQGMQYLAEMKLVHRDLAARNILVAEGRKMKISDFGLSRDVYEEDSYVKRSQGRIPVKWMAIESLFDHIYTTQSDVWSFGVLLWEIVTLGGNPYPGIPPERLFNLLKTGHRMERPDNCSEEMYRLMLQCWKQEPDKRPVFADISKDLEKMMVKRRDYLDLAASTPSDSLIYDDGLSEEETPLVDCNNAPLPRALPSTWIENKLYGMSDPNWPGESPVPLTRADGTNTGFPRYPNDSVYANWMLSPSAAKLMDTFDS
T2 sequence (P35968 20-1356): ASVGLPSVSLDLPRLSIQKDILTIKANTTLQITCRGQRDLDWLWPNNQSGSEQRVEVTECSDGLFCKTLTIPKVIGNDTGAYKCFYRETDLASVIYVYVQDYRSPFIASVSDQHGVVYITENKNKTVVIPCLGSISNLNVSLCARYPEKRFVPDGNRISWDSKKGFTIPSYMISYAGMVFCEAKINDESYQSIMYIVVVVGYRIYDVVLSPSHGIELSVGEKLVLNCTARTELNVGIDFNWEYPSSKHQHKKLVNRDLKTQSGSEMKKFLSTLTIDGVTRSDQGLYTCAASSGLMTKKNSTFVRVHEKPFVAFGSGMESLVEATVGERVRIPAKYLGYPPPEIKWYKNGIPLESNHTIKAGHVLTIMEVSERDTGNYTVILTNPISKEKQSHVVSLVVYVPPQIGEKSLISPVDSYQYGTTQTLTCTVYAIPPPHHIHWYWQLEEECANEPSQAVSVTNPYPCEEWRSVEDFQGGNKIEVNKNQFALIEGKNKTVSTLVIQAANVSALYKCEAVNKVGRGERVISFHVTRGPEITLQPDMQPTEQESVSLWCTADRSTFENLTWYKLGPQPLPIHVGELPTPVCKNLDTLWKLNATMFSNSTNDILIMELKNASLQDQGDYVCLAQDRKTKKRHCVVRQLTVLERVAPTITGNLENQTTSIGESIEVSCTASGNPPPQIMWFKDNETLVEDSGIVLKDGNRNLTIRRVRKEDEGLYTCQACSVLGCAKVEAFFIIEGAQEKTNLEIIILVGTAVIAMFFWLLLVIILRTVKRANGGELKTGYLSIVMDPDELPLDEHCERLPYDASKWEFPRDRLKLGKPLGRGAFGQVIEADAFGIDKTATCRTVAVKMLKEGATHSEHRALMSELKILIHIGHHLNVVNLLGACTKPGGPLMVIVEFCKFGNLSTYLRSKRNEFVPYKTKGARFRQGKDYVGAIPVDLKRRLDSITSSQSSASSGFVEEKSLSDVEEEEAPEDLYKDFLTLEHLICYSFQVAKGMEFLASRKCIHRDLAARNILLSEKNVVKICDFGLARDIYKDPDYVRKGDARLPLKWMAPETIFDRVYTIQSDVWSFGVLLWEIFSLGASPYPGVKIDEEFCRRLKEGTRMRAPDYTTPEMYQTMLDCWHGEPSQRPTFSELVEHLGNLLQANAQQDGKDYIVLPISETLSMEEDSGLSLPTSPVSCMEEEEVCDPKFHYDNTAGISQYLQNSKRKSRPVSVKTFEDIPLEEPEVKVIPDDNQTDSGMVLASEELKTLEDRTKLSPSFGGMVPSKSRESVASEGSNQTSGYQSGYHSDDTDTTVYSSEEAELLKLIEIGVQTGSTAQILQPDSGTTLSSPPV
T1 sequence (P07949 29-1114): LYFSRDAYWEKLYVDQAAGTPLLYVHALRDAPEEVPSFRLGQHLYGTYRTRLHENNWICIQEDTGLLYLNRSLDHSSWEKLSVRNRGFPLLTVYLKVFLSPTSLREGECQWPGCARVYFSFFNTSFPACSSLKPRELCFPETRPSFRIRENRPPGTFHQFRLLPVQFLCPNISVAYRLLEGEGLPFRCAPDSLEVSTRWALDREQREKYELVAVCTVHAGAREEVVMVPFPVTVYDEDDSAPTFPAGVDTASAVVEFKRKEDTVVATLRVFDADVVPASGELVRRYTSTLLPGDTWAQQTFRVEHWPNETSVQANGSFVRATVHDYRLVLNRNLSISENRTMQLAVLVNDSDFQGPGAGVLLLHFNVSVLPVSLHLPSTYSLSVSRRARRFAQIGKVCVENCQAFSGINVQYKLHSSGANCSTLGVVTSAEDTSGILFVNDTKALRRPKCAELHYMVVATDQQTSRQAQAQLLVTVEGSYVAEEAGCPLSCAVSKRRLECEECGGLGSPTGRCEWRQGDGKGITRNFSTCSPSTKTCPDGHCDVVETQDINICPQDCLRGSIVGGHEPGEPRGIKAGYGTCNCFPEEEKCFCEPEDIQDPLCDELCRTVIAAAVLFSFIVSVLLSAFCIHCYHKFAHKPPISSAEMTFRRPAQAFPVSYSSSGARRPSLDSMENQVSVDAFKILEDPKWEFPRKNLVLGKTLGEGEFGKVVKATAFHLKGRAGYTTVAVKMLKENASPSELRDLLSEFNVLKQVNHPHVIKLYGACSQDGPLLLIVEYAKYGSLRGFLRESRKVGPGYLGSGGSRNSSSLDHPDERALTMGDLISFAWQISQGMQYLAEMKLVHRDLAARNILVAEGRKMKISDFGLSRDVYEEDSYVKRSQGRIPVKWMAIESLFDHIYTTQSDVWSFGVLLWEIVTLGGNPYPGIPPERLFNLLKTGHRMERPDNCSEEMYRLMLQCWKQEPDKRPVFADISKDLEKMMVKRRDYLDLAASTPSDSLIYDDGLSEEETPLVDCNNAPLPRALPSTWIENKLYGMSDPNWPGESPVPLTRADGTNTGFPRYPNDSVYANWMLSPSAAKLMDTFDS

Row | Compound | IC50 (human RET kinase) [nM] | IC50 (human KDR kinase) [nM] | GI50 (BAF3-KIF5B-RET cells) [nM] | IC50 (TT cells; TT) [nM] | IC50 (TT cells) [nM]
1 | Cn1cc(-c2cc(-c3ccc(N4C[C@@H]5[C@H](C4)[C@H]5NS(=O)(=O)c4c(F)cccc4Cl)nc3)c3c(C#N)cnn3c2)cn1 [Example 46, 2-chloro-N-((1R,5S,6s)-3-(5-(3-cyano-6-(1-methyl-1H-pyrazol-4-yl)pyrazolo[1,5-a]pyridin-4-yl)pyridin-2-yl)-3-azabicyclo[3.1.0]hexan-6-yl)-6-fluorobenzene-sulfonamide] | ≤ 10 | ≤ 10 | ≤ 10 | ≤ 10 | –
2 | Cn1cc(-c2cc(-c3ccc(N4C5CC6CC4CC(NC(=O)OC(C)(C)C)(C6)C5)nc3)c3c(C#N)cnn3c2)cn1 [Example 180] | ≤ 10 | ≤ 10 | ≤ 10 | ≤ 10 | –
3 | COc1ccc(CN2C[C@@H]3CN(c4ccc(-c5cc(-c6cnn(C)c6)cn6ncc(C#N)c56)cn4)C[C@@H]3C2)cn1 [Example 12, 4-(6-((3aR,6aS)-5-((6-methoxypyridin-3-yl)methyl)hexahydropyrrolo[3,4-c]pyrrol-2(1H)-yl)pyridin-3-yl)-6-(1-methyl-1H-pyrazol-4-yl)pyrazolo[1,5-a]pyridine-3-carbonitrile] | ≤ 10 | 10 to 50 | ≤ 10 | – | 10 to 50
4 | Cn1cc(-c2cc(-c3ccc(N4C5CC6CC4CC(N)(C6)C5)nc3)c3c(C#N)cnn3c2)cn1 [Example 181, 4-(6-((1R,3S,5s,7s)-5-amino-2-azaadamantan-2-yl)pyridin-3-yl)-6-(1-methyl-1H-pyrazol-4-yl)pyrazolo[1,5-a]pyridine-3-carbonitrile] | ≤ 10 | ≤ 10 | 10 to 50 | ≤ 10 | –
5 | CC(C)(O)COc1cc(-c2ccc(N3C[C@H]4CN(C(=O)c5ncccc5Cl)C[C@H]4C3)nc2)c2c(C#N)cnn2c1 [Example 7, 4-(6-((3aR,6aS)-5-(3-chloropicolinoyl)hexahydropyrrolo[3,4-c]pyrrol-2(1H)-yl)pyridin-3-yl)-6-(2-hydroxy-2-methylpropoxy)pyrazolo[1,5-a]pyridine-3-carbonitrile] | ≤ 10 | > 100 | 50 to 100 | ≤ 10 | –
6 | CC(C)C(=O)NC12CC3CC(C1)N(c1ccc(-c4cc(OCC(C)(C)O)cn5ncc(C#N)c45)cn1)C(C3)C2 [Example 132, N-((1R,3S,5s,7s)-2-(5-(3-cyano-6-(2-hydroxy-2-methylpropoxy)pyrazolo[1,5-a]pyridin-4-yl)pyridin-2-yl)-2-azaadamantan-5-yl)isobutyramide] | ≤ 10 | > 100 | 10 to 50 | ≤ 10 | –
7 | CC(C)(O)COc1cc(-c2ccc(N3C4CC5CC3CC(NC(=O)c3ncccc3F)(C5)C4)nc2)c2c(C#N)cnn2c1 [Example 137, N-((1R,3S,5s,7s)-2-(5-(3-cyano-6-(2-hydroxy-2-methylpropoxy)pyrazolo[1,5-a]pyridin-4-yl)pyridin-2-yl)-2-azaadamantan-5-yl)-3-fluoropicolinamide] | ≤ 10 | 50 to 100 | ≤ 10 | ≤ 10 | –
8 | CCOc1cc(-c2ccc(N3C4CC5CC3CC(NC(=O)c3ncccc3Cl)(C5)C4)nc2)c2c(C#N)cnn2c1 [Example 136, 3-chloro-N-((1R,3S,5s,7s)-2-(5-(3-cyano-6-ethoxypyrazolo[1,5-a]pyridin-4-yl)pyridin-2-yl)-2-azaadamantan-5-yl)picolinamide] | ≤ 10 | 10 to 50 | ≤ 10 | ≤ 10 | –
9 | CC(C)(O)COc1cc(-c2ccc(N3C4CC5CC3CC(C(=O)Nc3ncccc3Cl)(C5)C4)nc2)c2c(C#N)cnn2c1 [Example 98, (1R,3 S,5s,7s)-N-(3-chloropyridin-2-yl)-2-(5-(3-cyano-6-(2-hydroxy-2-methylpropoxy)pyrazolo[1,5-a]pyridin-4-yl)pyridin-2-yl)-2-azaadamantane-5-carboxamide] | ≤ 10 | 10 to 50 | ≤ 10 | ≤ 10 | –

Further lines, with some results ahead:

Row | IC50 (human RET kinase) [nM] | IC50 (human KDR kinase) [nM] | GI50 (BAF3-KIF5B-RET cells) [nM] | Compound | IC50 (TT cells; TT) [nM] | IC50 (TT cells) [nM]
10 | ≤ 10 | 10 to 50 | ≤ 10 | CC(C)(O)COc1cc(-c2ccc(N3C[C@@H]4C[C@@](C)(NC(=O)c5c(F)cccc5Cl)C[C@@H]4C3)nc2)c2c(C#N)cnn2c1 [Example 96, 2-chloro-N-((3aR,5s,6aS)-2-(5-(3-cyano-6-(2-hydroxy-2-methylpropoxy)pyrazolo[1,5-a]pyridin-4-yl)pyridin-2-yl)-5-methyloctahydrocyclopenta[c]pyrrol-5-yl)-6-fluorobenzamide] | ≤ 10 | –
11 | ≤ 10 | 10 to 50 | ≤ 10 | Cn1ccc(-c2cc(-c3cnc(N4C[C@@H]5C[C@@](C)(NC(=O)c6ncccc6Cl)C[C@@H]5C4)cn3)c3c(C#N)cnn3c2)n1 [Example 70, 3-chloro-N-((3aR,5s,6aS)-2-(5-(3-cyano-6-(1-methyl-1H-pyrazol-3-yl)pyrazolo[1,5-a]pyridin-4-yl)pyrazin-2-yl)-5-methyloctahydrocyclopenta[c]pyrrol-5-yl)picolinamide] | 10 to 50 | –
12 | ≤ 10 | 50 to 100 | 50 to 100 | COc1ccc(CN[C@]2(C)C[C@H]3CN(c4cnc(-c5cc(-c6cnn(C)c6)cn6ncc(C#N)c56)cn4)C[C@H]3C2)cn1 [Example 101, 4-(5-((3aR,5s,6aS)-5-(((6-methoxypyridin-3-yl)methyl)amino)-5-methylhexahydrocyclopenta[c]pyrrol-2(1H)-yl)pyrazin-2-yl)-6-(1-methyl-1H-pyrazol-4-yl)pyrazolo[1,5-a]pyridine-3-carbonitrile] | 50 to 100 | –
13 | ≤ 10 | > 100 | 10 to 50 | CC(C)(O)COc1cc(-c2ccc(N3C[C@@H]4C[C@@](C)(NC(=O)c5ncccc5Cl)C[C@@H]4C3)nc2)c2c(C#N)cnn2c1 [Example 54, 3-chloro-N-((3aR,5s,6aS)-2-(5-(3-cyano-6-(2-hydroxy-2-methylpropoxy)pyrazolo[1,5-a]pyridin-4-yl)pyridin-2-yl)-5-methyloctahydro-cyclopenta[c]pyrrol-5-yl)picolinamide] | 10 to 50 | –
14 | ≤ 10 | ≤ 10 | ≤ 10 | Cn1cc(-c2cc(-c3ccc(N4C[C@@H]5CN(S(=O)(=O)c6c(F)cccc6Cl)C[C@@H]5C4)nc3)c3c(C#N)cnn3c2)cn1 [Example 11, 4-(6-((3aR,6aS)-5-(2-chloro-6-fluorophenylsulfonyl)hexahydropyrrolo[3,4-c]pyrrol-2(1H)-yl)pyridin-3-yl)-6-(1-methyl-1H-pyrazol-4-yl)pyrazolo[1,5-a]pyridine-3-carbonitrile] | ≤ 10 | –
15 | ≤ 10 | 10 to 50 | ≤ 10 | Cn1ccc(-c2cc(-c3ccc(N4C[C@@H]5C[C@@](C)(NC(=O)c6ncccc6Cl)C[C@@H]5C4)nc3)c3c(C#N)cnn3c2)n1 [Example 56, 3-chloro-N-((3aR,5s,6aS)-2-(5-(3-cyano-6-(1-methyl-1H-pyrazol-3-yl)pyrazolo[1,5-a]pyridin-4-yl)pyridin-2-yl)-5-methyloctahydro-cyclopenta[c]pyrrol-5-yl)picolinamide] | ≤ 10 | –
16 | ≤ 10 | 10 to 50 | ≤ 10 | Cn1cc(-c2cc(-c3cnc(N4C[C@@H]5C[C@@](C)(NC(=O)c6ncccc6Cl)C[C@@H]5C4)cn3)c3c(C#N)cnn3c2)cn1 [Example 61] | ≤ 10 | –
17 | ≤ 10 | 10 to 50 | ≤ 10 | Cn1cc(-c2cc(-c3ccc(N4C[C@H]5CN(C(=O)c6ncccc6Cl)C[C@H]5C4)nc3)c3c(C#N)cnn3c2)cn1 [Example 4, 4-(6-((3aR,6aS)-5-(3-chloropicolinoyl)hexahydropyrrolo[3,4-c]pyrrol-2(1H)-yl)pyridin-3-yl)-6-(1-methyl-1H-pyrazol-4-yl)pyrazolo[1,5-a]pyridine-3-carbonitrile] | ≤ 10 | –
18 | ≤ 10 | ≤ 10 | ≤ 10 | Cn1cc(-c2cc(-c3ccc(N4C5CC6CC4CC(C(=O)Nc4ncccc4Cl)(C6)C5)nc3)c3c(C#N)cnn3c2)cn1 [Example 90, (1R,3S,5s,7s)-N-(3-chloropyridin-2-yl)-2-(5-(3-cyano-6-(1-methyl-1H-pyrazol-4-yl)pyrazolo[1,5-a]pyridin-4-yl)pyridin-2-yl)-2-azaadamantane-5-carboxamide] | ≤ 10 | –
19 | ≤ 10 | ≤ 10 | ≤ 10 | Cn1cc(-c2cc(-c3ccc(N4C[C@H]5CN(C(=O)c6c(F)cccc6Cl)C[C@H]5C4)nc3)c3c(C#N)cnn3c2)cn1 [Example 5, 4-(6-((3aR,6aS)-5-(2-chloro-6-fluorobenzoyl)hexahydropyrrolo[3,4-c]pyrrol-2(1H)-yl)pyridin-3-yl)-6-(1-methyl-1H-pyrazol-4-yl)pyrazolo[1,5-a]pyridine-3-carbonitrile] | ≤ 10 | –

Source: patent publication US20220220128A1, “HETEROCYCLIC COMPOUNDS AS KINASE INHIBITORS, COMPOSITIONS COMPRISING THE HETEROCYCLIC COMPOUND, AND METHODS OF USE THEREOF” (JS Innopharm (Shanghai) Ltd, priority 2019, published 2022)
